Test results as given in patent US10696703B2, “Method for producing eushearlilides” (TOKYO UNIVERSITY OF SCIENCE FOUNDATION, priority 2014, dated 2020).

Experiments:
Type in all cases: cell-based
[1] = tested on: Staphylococcus aureus NBRC 12732; assay: MIC measurement by CLSI disk method, Staphylococcus aureus NBRC 12732; conditions: for Inhibition zone: at the MIC amount per disk, mean of longest and shortest lengths of area without growth; for MIC concentration: disk method, Mueller-Hinton II agar, 36 ± 1° C., 18 to 24 hours
Experimental: (§1) The followings were used as test microorganisms: Staphylococcus aureus NBRC 12732, Aspergillus niger NBRC 105649, and Trichophyton mentagrophytes NBRC 5466. Measurements were performed in accordance with the disk method as defined by CLSI (Clinical and Laboratory Standards Institute). A cryopreserved strain was applied onto a test-bacterium preculture medium, and precultured under predetermined conditions. A grown colony was suspended in a test-bacterium culture medium, and cultured under predetermined conditions, and then added to a test-bacterium preparation liquid to adjust the number of cells to about 107-8 CFU/mL. Further, the prepared test-bacterium liquid was subjected to 10-times serial dilution, and cultured under predetermined conditions, and the number of cells was then counted. [table] Each compound was dissolved in methanol to 1,000 μg/mL, which was used as a sample stock solution. Otsuka distilled water in an amount of 0.75 mL was added to 0.75 mL of the sample stock solution to give a volume of 500 μg/mL. This two-fold dilution was repeated in a similar way. A total of 10 test-substance dilution series was prepared so that the concentrations of the test substance were each 1000, 500, 250, 125, 63, 31, 16, 8, 4, and 2 μg/mL. A test-bacterium liquid was uniformly spread over a corresponding sensitivity measurement agar medium in a square petri dish using a swab, and disks were placed on the medium. At this time, the distance between disks was set to 24 mm or more. A test-substance diluted liquid in an amount of 50 μL was dropped on a disk. The amount of a test substance per disk was 50, 25, 12.5, 6.3, 3.1, 1.6, 0.8, 0.4, 0.2, or 0.1 μg. Each sensitivity measurement agar medium was cultured under conditions shown in Table 1 above, and the diameter of an inhibition zone where bacterial growth was not observed was measured in mm with calipers. As control, methanol was dropped on a disk instead of a test substance.

[2] = tested on: Aspergillus niger NBRC 105649; assay: MIC measurement by CLSI disk method, Aspergillus niger NBRC 105649; conditions: for Inhibition zone: at the MIC amount per disk, mean of longest and shortest lengths of area without growth; for MIC concentration: disk method, Glucose Peptone agar, 27 ± 1° C., one week
Experimental: as §1

[3] = tested on: Trichophyton mentagrophytes NBRC 5466; assay: MIC measurement by CLSI disk method, Trichophyton mentagrophytes NBRC 5466; conditions: for Inhibition zone: at the MIC amount per disk of the same line, mean of longest and shortest lengths of area without growth; for MIC concentration: disk method, Glucose Peptone agar, 27 ± 1° C., one week
Experimental: as §1

[4] = tested on: Staphylococcus aureus (MRSA) IID1677; assay: MIC measurement by CLSI disk method, MRSA IID 1677; conditions: for Inhibition zone: at the MIC amount per disk, mean of longest and shortest lengths of area without growth; for MIC: disk method, bacterial liquid 7.3 × 10^7 CFU/mL, Mueller-Hinton II agar, 35 ± 1° C., 24 h
Experimental: (§2) The followings were used as test microorganisms: Staphylococcus aureus (MRSA) IID 1677, Staphylococcus aureus (MRSA) ATCC 43300, Enterococcus faecalis (VRE) ATCC 51575, and Enterococcus faecalis ATCC 29212.
(§3) Measurements were performed in accordance with the disk method as defined by CLSI (Clinical and Laboratory Standards Institute).
(§4) A cryopreserved strain was applied onto a test-bacterium culture medium, and precultured under predetermined conditions (Table 3). A grown colony was again precultured (Table 3), and then suspended in a test-bacterium preparation liquid, and filtered through absorbent cotton. The number of cells was then adjusted to about 107-8 CFU/mL. This was used for the tests. Further, the prepared test-bacterium liquid was subjected to 10-times serial dilution, and cultured under predetermined conditions (Table 4), and the number of cells was then counted.
(§5) Each of the compounds according to the present invention was dissolved in methanol (Wako Pure Chemical Industries, Ltd., Special grade, Content: 99.8%) to 1000 µg/mL. This was used as a sample stock solution. Otsuka distilled water in an amount of 0.8 mL was added to 0.8 mL of the sample stock solution such that the concentration of each of the compounds according to the present invention was 500 μg/mL. This two-fold dilution was repeated in a similar way. A total of 10 test-substance dilution series were prepared so that the concentrations of the test substance were each 1000, 500, 250, 125, 63, 31, 16, 8, 4, and 2 μg/mL.
(§6) A test-bacterium liquid was uniformly spread over a sensitivity measurement agar medium in a square petri dish (230×80×14.5 mm, Eiken Chemical Co., Ltd.) using a swab, and φ8-mm thick disks (for antibiotics assay, Advantec Co., Ltd.) were placed on the medium. At this time, the distance between disks was set to 24 mm or more. A test-substance diluted liquid in an amount of 50 μL was dropped on a disk. The amount of a test substance per disk was 50, 25, 12.5, 6.3, 3.1, 1.6, 0.8, 0.4, 0.2, or 0.1 μg. A sensitivity measurement agar medium was cultured under predetermined conditions (Table 4), and the width of an inhibition zone where bacterial growth was not observed was measured in mm with calipers. As control, methanol was dropped on a disk instead of a test substance.

[5] = tested on: Staphylococcus aureus (MRSA) ATCC43300; assay: MIC measurement by CLSI disk method, MRSA ATCC 43300; conditions: for Inhibition zone: at the MIC amount per disk, mean of longest and shortest lengths of area without growth; for MIC: disk method, bacterial liquid 1.0 × 10^8 CFU/mL, Mueller-Hinton II agar, 35 ± 1° C., 24 h
Experimental: as §2, §3, §4, §5, §6

[6] = tested on: Enterococcus faecalis (VRE) ATCC51575; assay: MIC measurement by CLSI disk method, VRE ATCC 51575; conditions: for Inhibition zone: at the MIC amount per disk, mean of longest and shortest lengths of area without growth; for MIC: disk method, bacterial liquid 1.9 × 10^8 CFU/mL, Mueller-Hinton II agar, 35 ± 1° C., 24 h
Experimental: as §2, §3, §4, §5, §6

[7] = tested on: Enterococcus faecalis ATCC29212; assay: MIC measurement by CLSI disk method, Enterococcus faecalis ATCC 29212; conditions: for Inhibition zone: at the MIC amount per disk of the same line, mean of longest and shortest lengths of area without growth; for MIC: disk method, bacterial liquid 9.6 × 10^7 CFU/mL, Mueller-Hinton II agar, 35 ± 1° C., 24 h
Experimental: as §2, §3, §4, §5, §6

| SMILES | Inhibition zone [1] | MIC concentration [1] | Inhibition zone [2] | MIC concentration [2] | Inhibition zone [3] | MIC concentration [3] | Inhibition zone [4] | MIC [4] | Inhibition zone [5] | MIC [5] | Inhibition zone [6] | MIC [6] | Inhibition zone [7] | MIC [7] |
| --- | --- | --- | --- | --- | --- | --- | --- | --- | --- | --- | --- | --- | --- | --- |
| C[C@@H]1C/C=C/CC/C=C/CCCCCCCCCCCC[C@@H](OP(=O)([O-])OCC[N+](C)(C)C)CC(=O)O1 [Compound A] | 2 mm | 50 μg/disk | 3.7 mm | 50 μg/disk | 2.5 mm | 25 μg/disk |  |  |  |  |  |  |  |  |
| C[C@@H]1C/C=C/CC/C=C\CCCCCCCCCCCC[C@@H](OP(=O)([O-])OCC[N+](C)(C)C)CC(=O)O1 [Compound B] | 2.2 mm | 50 μg/disk | 3.7 mm | 50 μg/disk | 3.9 mm | 12.5 μg/disk |  |  |  |  |  |  |  |  |
| C[C@@H]1C/C=C/CC/C=C\CCCCCCCCCCCC[C@H](OP(=O)([O-])OCC[N+](C)(C)C)CC(=O)O1 [Compound C] | 1.5 mm | 50 μg/disk | 1 mm | 50 μg/disk | 5.1 mm | 12.5 μg/disk |  |  |  |  |  |  |  |  |
| C[C@H]1C/C=C/CC/C=C/CCCCCCCCCCCC[C@H](OP(=O)([O-])OCC[N+](C)(C)C)CC(=O)O1 [Compound D, (3S,16E,20E,23S)-(+)-Eushearilide] |  |  |  |  |  |  | 1.4 mm | 50 μg/disk | 3.0 mm | 50 μg/disk | 4.7 mm | 50 μg/disk | 2.2 mm | 25 μg/disk |
| C[C@@H]1C/C=C/CC/C=C/CCCCCCCCCCCC[C@H](OP(=O)([O-])OCC[N+](C)(C)C)CC(=O)O1 [Compound E, (3S,16E,20E,23R)-(+)-Eushearilide] |  |  |  |  |  |  | 2.2 mm | 50 μg/disk | 3.3 mm | 50 μg/disk | 6.9 mm | 50 μg/disk | 0.0 mm | >50 μg/disk |
| C[C@H]1C/C=C/CC/C=C/CCCCCCCCCCCC[C@@H](OP(=O)([O-])OCC[N+](C)(C)C)CC(=O)O1 [Compound F, (3R,16E,20E,23S)-(−)-Eushearilide] |  |  |  |  |  |  | 3.1 mm | 50 μg/disk | 2.4 mm | 50 μg/disk | 5.8 mm | 50 μg/disk | 7.7 mm | 50 μg/disk |
| C[C@H]1C/C=C/CC/C=C\CCCCCCCCCCCC[C@H](OP(=O)([O-])OCC[N+](C)(C)C)CC(=O)O1 [Compound G, (3S,16Z,20E,23S)-(+)-Eushearilide] |  |  |  |  |  |  | 2.3 mm | 50 μg/disk | 0.9 mm | 50 μg/disk | 6.7 mm | 50 μg/disk | 8.4 mm | 50 μg/disk |
| C[C@H]1C/C=C/CC/C=C\CCCCCCCCCCCC[C@@H](OP(=O)([O-])OCC[N+](C)(C)C)CC(=O)O1 [Compound H, (3R,16Z,20E,23S)-(−)-Eushearilide] |  |  |  |  |  |  | 3.0 mm | 50 μg/disk | 2.7 mm | 50 μg/disk | 5.5 mm | 50 μg/disk | 3.3 mm | 50 μg/disk |
